pIC50: −log10 of the molar value.
Key:
[1] = target: T1, human orexin type 1 receptor (hOX1R) (Homo sapiens, UniProt O43613); test: Orexin receptor antagonistic activity, intracellular Ca2+ fluorescence (FDSS) in CHO cells expressing hOX1R; assay type: cell-based; conditions: CHO cells forced to express hOX1R; orexin-A analogue peptide ligand 300 pM; Fluo-4 maximum fluorescence; read-out: IC50 value OX1R
T1 construct: expressed in transfected cells; host or cells: Chinese hamster ovary (CHO) cells
T1 sequence (O43613 1-425): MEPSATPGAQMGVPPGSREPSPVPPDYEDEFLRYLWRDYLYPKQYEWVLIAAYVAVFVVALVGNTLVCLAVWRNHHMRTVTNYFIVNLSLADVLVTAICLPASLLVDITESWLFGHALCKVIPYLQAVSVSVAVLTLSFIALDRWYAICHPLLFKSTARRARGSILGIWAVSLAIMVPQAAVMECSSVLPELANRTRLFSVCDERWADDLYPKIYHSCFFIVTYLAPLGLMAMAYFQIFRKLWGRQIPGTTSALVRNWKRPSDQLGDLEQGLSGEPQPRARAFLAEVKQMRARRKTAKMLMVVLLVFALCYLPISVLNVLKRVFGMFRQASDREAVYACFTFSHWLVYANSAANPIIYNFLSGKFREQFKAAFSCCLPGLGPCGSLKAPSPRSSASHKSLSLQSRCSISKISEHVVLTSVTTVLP
Protocol: (§1) The antagonistic activity of each test compound against human orexin type 1 receptor (hOX1R) and orexin type 2 receptor (hOX2R) was performed as described in the literature with a modification (Toshikatsu Okumura et al., Biochemical and Biophysical Research Communications 280, 976-981, 2001). Chinese hamster ovary (CHO) cells forced to express hOX1R or hOX2R were seeded at 20,000 cells/well on a 96 well Black clear bottom plates (Nunc) and cultured for 16 hours under conditions of 37° C. and 5% CO2 using a Ham's F-12 medium containing 0.1 mM MEM non-essential amino acids, 0.5 mg/ml G418, and 10% fetal bovine serum (all from Invitrogen Corp.). After removal of the medium, 100 μL of the assay buffer (25 mM HEPES (Dojindo Laboratories), Hanks' balanced salt solution (Invitrogen Corp.), 0.1% bovine serum albumin, 2.5 mM probenecid, 200 μg/ml Amaranth (all from Sigma-Aldrich Corp.), pH 7.4) containing 0.5 μM Fluo-4AM ester (Dojindo Laboratories) was added thereto, and the cells were incubated for 60 minutes under conditions of 37° C. and 5% CO2. After removal of the buffer solution for assay containing Fluo-4AM ester, the test compound was dissolved at a concentration of 10 mM in dimethyl sulfoxide and diluted with the assay buffer, and 150 μL of the diluted solution was then added to each wells, which were then incubated for 30 minutes.
(§2) A peptide (Pyr-[…]11e-Leu-Thr-Leu-NH2; Peptide Institute, Inc.) substituted 2 amino acids of human orexin-A was diluted with the assay buffer to 300 pM (final concentration for hOX1R) or 3 nM (final concentration for hOX2R). 50 μL of this ligand solution was added thereto to start reaction. During the reaction, the fluorescence value of each well was measured every one second for 3 minutes using Functional Drug Screening System (FDSS; manufactured by Hamamatsu Photonics K.K.), and antagonistic activity was determined with the maximum fluorescence value as an index for intracellular Ca^2+ concentration. The antagonistic activity of the test compound was calculated with the fluorescence value of a well supplemented with only a dilution buffer solution as 100% and the fluorescence value of a well supplemented with a buffer solution containing neither the ligand nor the compound as 0%, and determined in terms of 50% inhibitory concentration (IC50 value) from fluorescence values derived from the test compound added at varying concentrations.

[2] = target: T2, orexin type 2 receptor (hOX2R) (Homo sapiens, UniProt O43614); test: Orexin receptor antagonistic activity, intracellular Ca2+ fluorescence (FDSS) in CHO cells expressing hOX2R; assay type: cell-based; conditions: CHO cells forced to express hOX2R; orexin-A analogue peptide ligand 3 nM; Fluo-4 maximum fluorescence; read-out: IC50 value OX2R
T2 construct: expressed in transfected cells; host or cells: Chinese hamster ovary (CHO) cells
T2 sequence (O43614 1-444): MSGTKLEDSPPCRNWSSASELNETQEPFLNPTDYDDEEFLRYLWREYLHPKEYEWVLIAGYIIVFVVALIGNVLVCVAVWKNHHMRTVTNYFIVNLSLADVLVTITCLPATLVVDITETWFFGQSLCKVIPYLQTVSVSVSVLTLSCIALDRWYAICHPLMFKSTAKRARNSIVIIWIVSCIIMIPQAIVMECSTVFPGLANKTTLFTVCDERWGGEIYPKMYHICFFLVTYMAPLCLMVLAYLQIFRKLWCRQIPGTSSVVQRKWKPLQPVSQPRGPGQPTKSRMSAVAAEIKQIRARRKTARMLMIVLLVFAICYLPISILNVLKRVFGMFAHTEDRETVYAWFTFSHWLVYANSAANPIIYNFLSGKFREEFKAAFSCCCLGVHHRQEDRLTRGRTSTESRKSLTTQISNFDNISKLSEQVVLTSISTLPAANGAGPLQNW
Protocol: as §1, §2

| pIC50 [1] | pIC50 [2] | Compound |
| --- | --- | --- |
| 7.60 | 7.57 | Cc1ccc(-n2nccn2)c(C(=O)N(CCn2ccc(-c3ccc(F)cn3)n2)C2COC2)c1 [Example 31, N-{2-[3-(5-fluoropyridin-2-yl)-1H-pyrazol-1-yl]ethyl}-5-methyl-N-(oxetan-3-yl)-2-(2H-1,2,3-triazol-2-yl)benzamide] |
| 5.98 | 5.62 | Cc1ccc(-n2nccn2)c(C(=O)NCCn2cc(-c3ccc(F)cn3)cn2)c1 [Example 1, N-{2-[4-(5-fluoropyridin-2-yl)-1H-pyrazol-1-yl]ethyl}-5-methyl-2-(2H-1,2,3-triazol-2-yl)benzamide] |
| 8.74 | 7.93 | CCN(CCn1ccc(-c2ccc(F)cn2)n1)C(=O)c1cc(C)ccc1-c1ccccn1 [Example 35, N-ethyl-N-{2-[3-(5-fluoropyridin-2-yl)-1H-pyrazol-1-yl]ethyl}-5-methyl-2-(pyridin-2-yl)benzamide] |
| 8.64 | 8.20 | CCN(CCn1cc(-c2ccc(F)cc2)cn1)C(=O)c1cc(C)ccc1-n1nccn1 [Example 7, N-ethyl-N-{2-[4-(4-fluorophenyl)-1H-pyrazol-1-yl]ethyl}-5-methyl-2-(2H-1,2,3-triazol-2-yl)benzamide] |
| 7.42 | 7.02 | CCN(CCn1cc(-c2ccc(F)cn2)cn1)C(=O)c1cc(F)ccc1-n1nccn1 [Example 56, N-ethyl-5-fluoro-N-{2-[4-(5-fluoropyridin-2-yl)-1H-pyrazol-1-yl]ethyl}-2-(2H-1,2,3-triazol-2-yl)benzamide] |
| 8.66 | 8.15 | Cc1ccc(-n2nccn2)c(C(=O)N(C)CCn2cc(-c3ccc(F)cc3)cn2)c1 [Example 3-2, N-{2-[4-(4-fluorophenyl)-1H-pyrazol-1-yl]ethyl}-N,5-dimethyl-2-(2H-1,2,3-triazol-2-yl)benzamide] |
| 9.05 | 8.60 | CCN(CCn1ccc(-c2ccc(F)cc2)n1)C(=O)c1cc(C)ccc1-n1nccn1 [Example 8, N-ethyl-N-{2-[3-(4-fluorophenyl)-1H-pyrazol-1-yl]ethyl}-5-methyl-2-(2H-1,2,3-triazol-2-yl)benzamide] |
| 8.82 | 8.41 | CCN(CCn1ccc(-c2ccc(F)cn2)n1)C(=O)c1cc(C)ccc1-n1nccn1 [Example 19, N-ethyl-N-{2-[3-(5-fluoropyridin-2-yl)-1H-pyrazol-1-yl]ethyl}-5-methyl-2-(2H-1,2,3-triazol-2-yl)benzamide] |
| 8.74 | 7.64 | CCN(CCn1cc(-c2cccc(C)n2)cn1)C(=O)c1cc(C)ccc1-n1nccn1 [Example 12, N-ethyl-N-{2-[4-(6-methylpyridin-2-yl)-1H-pyrazol-1-yl]ethyl}-5-methyl-2-(2H-1,2,3-triazol-2-yl)benzamide] |
| 6.96 | 6.52 | CCN(CCn1cc(-c2ccc(F)cn2)cn1)C(=O)c1ccccc1-c1ncccn1 [Example 37, N-ethyl-N-{2-[4-(5-fluoropyridin-2-yl)-1H-pyrazol-1-yl]ethyl}-2-(pyrimidin-2-yl)benzamide] |
| 7.68 | 7.36 | Cc1ccc(-n2nccn2)c(C(=O)N(CCn2ccc(-c3ccc(F)cn3)n2)C(C)C)c1 [Example 27, N-{2-[3-(5-fluoropyridin-2-yl)-1H-pyrazol-1-yl]ethyl}-5-methyl-N-(propan-2-yl)-2-(2H-1,2,3-triazol-2-yl)benzamide] |
| 8.43 | 7.69 | Cc1ccc(-n2nccn2)c(C(=O)N(CCF)CCn2ccc(-c3ccc(F)cn3)n2)c1 [Example 21, N-{2-[3-(5-fluoropyridin-2-yl)-1H-pyrazol-1-yl]ethyl}-5-methyl-N-(2-fluoroethyl)-2-(2H-1,2,3-triazol-2-yl)benzamide] |
| 9.00 | 8.37 | CCN(CCn1ccc(-c2ccccn2)n1)C(=O)c1cc(C)ccc1-n1nccn1 [Example 9, N-ethyl-5-methyl-N-{2-[3-(pyridin-2-yl)-1H-pyrazol-1-yl]ethyl}-2-(2H-1,2,3-triazol-2-yl)benzamide] |
| 8.25 | 7.64 | Cc1ccc(-n2nccn2)c(C(=O)N(C)CCn2ccc(-c3ccc(F)cn3)n2)c1 [Example 17, N-{2-[3-(5-fluoropyridin-2-yl)-1H-pyrazol-1-yl]ethyl}-N,5-dimethyl-2-(2H-1,2,3-triazol-2-yl)benzamide] |
| 8.82 | 8.66 | CCN(CCn1ccc(-c2cccc(C)n2)n1)C(=O)c1cc(C)ccc1-n1nccn1 [Example 39, N-ethyl-5-methyl-N-{2-[3-(6-methylpyridin-2-yl)-1H-pyrazol-1-yl]ethyl}-2-(2H-1,2,3-triazol-2-yl)benzamide] |
| 7.84 | 7.28 | CCN(CCn1cc(-c2ccc(Cl)cn2)cn1)C(=O)c1cc(C)ccc1-n1nccn1 [Example 10, N-{2-[4-(5-chloropyridin-2-yl)-1H-pyrazol-1-yl]ethyl}-N-ethyl-5-methyl-2-(2H-1,2,3-triazol-2-yl)benzamide] |
| 8.08 | 8.05 | CCN(CCn1ccc(-c2ccc(F)cn2)n1)C(=O)c1ccccc1-c1ncccn1 [Example 34, N-ethyl-N-{2-[3-(5-fluoropyridin-2-yl)-1H-pyrazol-1-yl]ethyl}-2-(pyrimidin-2-yl)benzamide] |
| 8.17 | 8.66 | Cc1ccc(-n2nccn2)c(C(=O)N(CCn2ccc(-c3ccc(F)cn3)n2)CC2CC2)c1 [Example 18, N-(cyclopropylmethyl)-N-{2-[3-(5-fluoropyridin-2-yl)-1H-pyrazol-1-yl]ethyl}-5-methyl-2-(2H-1,2,3-triazol-2-yl)benzamide] |
| 7.76 | 7.53 | CCN(CCn1ccc(-c2ccc(F)cn2)n1)C(=O)c1ccc(F)cc1-n1nccn1 [Example 44, N-ethyl-4-fluoro-N-{2-[3-(5-fluoropyridin-2-yl)-1H-pyrazol-1-yl]ethyl}-2-(2H-1,2,3-triazol-2-yl)benzamide] |
| 9.05 | 8.06 | Cc1ccc(-n2nccn2)c(C(=O)N(C)CCn2ccc(-c3ccc(F)cc3)n2)c1 [Example 20-2, N-{2-[3-(4-fluorophenyl)-1H-pyrazol-1-yl]ethyl}-N,5-dimethyl-2-(2H-1,2,3-triazol-2-yl)benzamide] |
| 8.22 | 7.84 | CCN(CCn1cc(-c2ccc(F)cn2)cn1)C(=O)c1cc(C)ccc1-n1nccn1 [Example 4, N-ethyl-N-{2-[4-(5-fluoropyridin-2-yl)-1H-pyrazol-1-yl]ethyl}-5-methyl-2-(2H-1,2,3-triazol-2-yl)benzamide] |
| 9.10 | 8.15 | CCN(CCn1ccc(-c2ccc(F)cn2)n1)C(=O)c1ccc(C)cc1-n1nccn1 [Example 47, N-ethyl-N-{2-[3-(5-fluoropyridin-2-yl)-1H-pyrazol-1-yl]ethyl}-4-methyl-2-(2H-1,2,3-triazol-2-yl)benzamide] |
| 8.74 | 8.46 | CCN(CCn1ccc(-c2ccc(F)cn2)n1)C(=O)c1cc(Cl)ccc1-c1ncccn1 [Example 43, N-ethyl-5-chloro-N-{2-[3-(5-fluoropyridin-2-yl)-1H-pyrazol-1-yl]ethyl}-2-(pyrimidin-2-yl)benzamide] |
